Patent EP0205308B1, “Scytophycins” (Moore, Richard Elliott, priority 1985, dated 1986)
Marks after values point to notes of the source that are not given here.

Legend:
[1] = tested on: Saccharomyces pastorianus X52; assay: In vitro agar-diffusion test; format: cell-based; set-up: key: T = trace
Protocol: (§1) The activity of scytophycin compounds against pathogenic fungi in standard in vitro agar-diffusion tests, using ¼"(6mm) discs holding ~30 µL of test solution, is illustrated in Tables 6-12.

[2] = tested on: Lewis Lung Carcinoma; assay: Survival of mice with intraperitoneally implanted tumor; format: in vivo, BDF1 Mice; settings: for activity against intraperitoneally implanted tumor: Lewis lung carcinoma, result in words; for % T/C / Mean Survival Time, Days Treated: LLC, 9 days of treatment
Protocol: (§2) Female hybrid BDF1 (DBA/2 x C57BL/6) mice were used for the evaluation of the scytophycins against the three tumors. The mice were first inoculated intraperitoneally with 10⁶ cells of P388 ascites leukemia (P388), 2 to 6 x 10⁵ cells of Lewis lung carcinoma (LLC) homogenate, or 0.3 mL of 20% homogenate of B16 tumor (B16) masses. Drug treatment was started the next day (day 1) and continued daily for 6-9 days.

[3] = tested on: B16 Melanoma; assay: as above; format: in vivo, BDF1 Mice; settings: for activity against intraperitoneally implanted tumor: B16 melanoma, result in words
Protocol: as §2

[4] = tested on: P388 Lymphocytic Leukemia; assay: as above; format: in vivo, BDF1 Mice; settings: for activity against intraperitoneally implanted tumor: P388 lymphocytic leukemia, result in words
Protocol: as §2

[5] = tested on: NIH/3T3 mouse fibroblast; assay: Cytotoxicity, minimum toxic dose (method of Furusawa and Cutting); format: cell-based; settings: NIH/3T3 mouse fibroblast cell line
Protocol: (§3) The scytophycin compounds are potent cytotoxins. For example, the minimum toxic doses of scytophycins A and B against KB human epidermoid carcinoma and NIH/3T3 mouse fibroblast cell lines were determined to be 1 ng/mL and 0.65 ng/mL, respectively, using methods described by E. Furusawa and W. Cutting in Ann. New York Acad. Sci. 173, 669-679 (1970).

[6] = tested on: KB human epidermoid carcinoma; assay: as above; format: cell-based; settings: KB human epidermoid carcinoma cell line
Protocol: as §3

[7] = tested on: Rhizoctonia solani X767; assay: In vitro agar-diffusion test; format: cell-based
Protocol: as §1

[8] = tested on: Sclerotina homoeocarpa X768; assay: In vitro agar-diffusion test; format: cell-based
Protocol: as §1

[9] = tested on: Candida albicans X657; assay: In vitro agar-diffusion test; format: cell-based; settings: for inhibition of fungal pathogen: Candida albicans, general statement in words
Protocol: as §1

[10] = tested on: Pythium ultimum X751; assay: In vitro agar-diffusion test; format: cell-based; settings: for Zone of Inhibition Size: Table 6, level 1 mg/mL
Protocol: as §1

[11] = tested on: Neurospora crassa X846; assay: In vitro agar-diffusion test; format: cell-based
Protocol: as §1

[12] = format: in vivo; settings: mice, administered IP
Protocol: At sublethal doses, the scytophycin compounds are antineoplastic agents. The minimum lethal dose of scytophycin B in mice, when administered IP, is about 650 µg/kg.

[13] = P388, 1 µg/Mouse, 8 days of treatment
[14] = B16, 2 µg/Mouse, 8 days of treatment
[15] = B16, 4 µg/Mouse, 8 days of treatment
[16] = B16, 8 µg/Mouse, 8 days of treatment
[17] = P388, 0.5 µg/Mouse, 8 days of treatment
[18] = P388, 0.65 µg/Mouse, 8 days of treatment
[19] = P388, 2 µg/Mouse, 8 days of treatment
[20] = P388, 3.25 µg/Mouse, 6 days of treatment
[21] = P388, 4 µg/Mouse, 8 days of treatment

Scytophycin A
Size of Zone of Inhibition (mm) ([1]; Table 7, 0.01 mg/mL): T^a | Size of Zone of Inhibition (mm) ([1]; Table 7, 0.1 mg/mL): 17 mm | Size of Zone of Inhibition (mm) ([1]; Table 7, 1 mg/mL): 24 mm | activity against intraperitoneally implanted tumor [2]: moderate activity | activity against intraperitoneally implanted tumor [3]: did not exhibit activity | % T/C [4, 13]: 125% | Mean Survival Time, Days Treated [4, 13]: 10.0 days | activity against intraperitoneally implanted tumor [4]: moderate activity | minimum toxic dose [5]: 1 ng/mL | minimum toxic dose [6]: 1 ng/mL | Size of Zone of Inhibition (mm) ([7]; Table 10, 0.01 mg/mL): 13 mm | Size of Zone of Inhibition (mm) ([7]; Table 10, 0.1 mg/mL): 23 mm | Size of Zone of Inhibition (mm) ([7]; Table 10, 1.0 mg/mL): 30 mm | Size of Zone of Inhibition (mm) ([8]; Table 10, 0.01 mg/mL): 20 mm | Size of Zone of Inhibition (mm) ([8]; Table 10, 0.1 mg/mL): 30 mm | Size of Zone of Inhibition (mm) ([8]; Table 10, 1.0 mg/mL): >30 mm | inhibition of fungal pathogen [9]: inhibit | Size of Zone of Inhibition (mm) ([9]; Table 7, 0.01 mg/mL): 12 mm | Size of Zone of Inhibition (mm) ([9]; Table 7, 0.1 mg/mL): 19 mm | Size of Zone of Inhibition (mm) ([9]; Table 7, 1 mg/mL): 23 mm | Zone of Inhibition Size [10]: 37 mm | Size of Zone of Inhibition (mm) ([10]; Table 10, 0.01 mg/mL): 20 mm | Size of Zone of Inhibition (mm) ([10]; Table 10, 0.1 mg/mL): >30 mm | Size of Zone of Inhibition (mm) ([10]; Table 10, 1.0 mg/mL): >30 mm | Size of Zone of Inhibition (mm) ([11]; Table 7, 0.01 mg/mL): 18 mm | Size of Zone of Inhibition (mm) ([11]; Table 7, 0.1 mg/mL): 25 mm | Size of Zone of Inhibition (mm) ([11]; Table 7, 1 mg/mL): 30 mm

Scytophycin B
Size of Zone of Inhibition (mm) ([1]; Table 7, 0.01 mg/mL): 20 mm | Size of Zone of Inhibition (mm) ([1]; Table 7, 0.1 mg/mL): 20 mm | Size of Zone of Inhibition (mm) ([1]; Table 7, 1 mg/mL): 27 mm | Size of Zone of Inhibition (mm) ([1]; Table 8, 0.33 mg/mL): 24 mm | Size of Zone of Inhibition (mm) ([1]; Table 8, 1 mg/mL): 24 mm | % T/C ([2]; 0.5 µg/Mouse): 106% | Mean Survival Time, Days Treated ([2]; 0.5 µg/Mouse): 10.4 days | % T/C ([2]; 1 µg/Mouse): 114% | Mean Survival Time, Days Treated ([2]; 1 µg/Mouse): 11.2 days | % T/C ([2]; 2 µg/Mouse): 124% | Mean Survival Time, Days Treated ([2]; 2 µg/Mouse): 12.2 days | % T/C ([2]; 4 µg/Mouse): 129% | Mean Survival Time, Days Treated ([2]; 4 µg/Mouse): 12.6 days | activity against intraperitoneally implanted tumor [2]: moderate activity | % T/C [3, 14]: 102% | Mean Survival Time, Days Treated [3, 14]: 19.4 days | % T/C [3, 15]: 104% | Mean Survival Time, Days Treated [3, 15]: 19.8 days | % T/C [3, 16]: 63% | Mean Survival Time, Days Treated [3, 16]: 12.0 days | toxicity remark in % T/C column [3, 16]: toxic | activity against intraperitoneally implanted tumor [3]: did not exhibit activity | % T/C [4, 17]: 100% | Mean Survival Time, Days Treated [4, 17]: 9.4 days | % T/C [4, 18]: 125% | Mean Survival Time, Days Treated [4, 18]: 10.0 days | % T/C [4, 13]: 113% | Mean Survival Time, Days Treated [4, 13]: 10.6 days | % T/C [4, 19]: 130% | Mean Survival Time, Days Treated [4, 19]: 12.2 days | % T/C [4, 20]: 136% | Mean Survival Time, Days Treated [4, 20]: 11.4 days | % T/C [4, 21]: 128% | Mean Survival Time, Days Treated [4, 21]: 12.0 days | activity against intraperitoneally implanted tumor [4]: moderate activity | minimum lethal dose [12]: about 650 µg/kg | minimum toxic dose [5]: 0.65 ng/mL | minimum toxic dose [6]: 0.65 ng/mL | Size of Zone of Inhibition (mm) ([7]; Table 10, 0.01 mg/mL): 30 mm | Size of Zone of Inhibition (mm) ([7]; Table 10, 0.1 mg/mL): >30 mm | Size of Zone of Inhibition (mm) ([7]; Table 10, 1.0 mg/mL): >30 mm | Size of Zone of Inhibition (mm) ([7]; Table 11, 0.33 mg/mL): 40 mm | Size of Zone of Inhibition (mm) ([7]; Table 11, 1.0 mg/mL): 46^a mm | Size of Zone of Inhibition (mm) ([8]; Table 10, 0.01 mg/mL): >30 mm | Size of Zone of Inhibition (mm) ([8]; Table 10, 0.1 mg/mL): >30 mm | Size of Zone of Inhibition (mm) ([8]; Table 10, 1.0 mg/mL): >30 mm | Size of Zone of Inhibition (mm) ([8]; Table 11, 0.33 mg/mL): 40 mm | Size of Zone of Inhibition (mm) ([8]; Table 11, 1.0 mg/mL): 44 mm | inhibition of fungal pathogen [9]: inhibit | Size of Zone of Inhibition (mm) ([9]; Table 7, 0.01 mg/mL): 21 mm | Size of Zone of Inhibition (mm) ([9]; Table 7, 0.1 mg/mL): 22 mm | Size of Zone of Inhibition (mm) ([9]; Table 7, 1 mg/mL): 26 mm | Size of Zone of Inhibition (mm) ([9]; Table 8, 0.33 mg/mL): 25 mm | Size of Zone of Inhibition (mm) ([9]; Table 8, 1 mg/mL): 31 mm | Zone of Inhibition Size [10]: 37 mm | Size of Zone of Inhibition (mm) ([10]; Table 10, 0.01 mg/mL): 30 mm | Size of Zone of Inhibition (mm) ([10]; Table 10, 0.1 mg/mL): 30^a mm | Size of Zone of Inhibition (mm) ([10]; Table 10, 1.0 mg/mL): 30^a mm | Size of Zone of Inhibition (mm) ([10]; Table 11, 0.33 mg/mL): 30 mm | Size of Zone of Inhibition (mm) ([10]; Table 11, 1.0 mg/mL): 30 mm | Size of Zone of Inhibition (mm) ([11]; Table 7, 0.01 mg/mL): 30 mm | Size of Zone of Inhibition (mm) ([11]; Table 7, 0.1 mg/mL): 27 mm | Size of Zone of Inhibition (mm) ([11]; Table 7, 1 mg/mL): 32 mm | Size of Zone of Inhibition (mm) ([11]; Table 8, 0.33 mg/mL): 36 mm | Size of Zone of Inhibition (mm) ([11]; Table 8, 1 mg/mL): 36 mm

Scytophycin E
Size of Zone of Inhibition (mm) ([1]; Table 8, 0.33 mg/mL): 18 mm | Size of Zone of Inhibition (mm) ([1]; Table 8, 1 mg/mL): 23 mm | Size of Zone of Inhibition (mm) ([7]; Table 11, 0.33 mg/mL): 33 mm | Size of Zone of Inhibition (mm) ([7]; Table 11, 0.33 mg/mL, second value of the cell, after the zone marked overgrowth): 15 mm | Size of Zone of Inhibition (mm) ([7]; Table 11, 1.0 mg/mL): 46 mm | Size of Zone of Inhibition (mm) ([7]; Table 11, 1.0 mg/mL, second value of the cell, after the zone marked overgrowth): 25 mm | Size of Zone of Inhibition (mm) ([8]; Table 11, 0.33 mg/mL): 33 mm | Size of Zone of Inhibition (mm) ([8]; Table 11, 1.0 mg/mL): 35 mm | Size of Zone of Inhibition (mm) ([9]; Table 8, 0.33 mg/mL): 22 mm | Size of Zone of Inhibition (mm) ([9]; Table 8, 1 mg/mL): 21 mm | Size of Zone of Inhibition (mm) ([10]; Table 11, 0.33 mg/mL): 30 mm | Size of Zone of Inhibition (mm) ([10]; Table 11, 1.0 mg/mL): 40 mm | Size of Zone of Inhibition (mm) ([11]; Table 8, 0.33 mg/mL): 26 mm | Size of Zone of Inhibition (mm) ([11]; Table 8, 1 mg/mL): 36 mm
